Source: patent publication US20260256763A1, “Aromatic Amide Derivative, And Preparation Method Therefor And Use Thereof” (Zhejiang Hisun Pharmaceutical Co., Ltd., priority 2023, published 2026)

Assays:
OVCAR-3 cells = assay: Inhibition on OVCAR-3 cell proliferation (CellTiter-Glo); type: cell-based; settings: Homo sapiens, OVCAR-3 cells (TP53 R248Q mutation), 72 hours
Protocol: (§1) Influences of the compounds of the present invention on OVCAR-3 cell proliferation were determined by the following method. OVCAR-3 cells (containing TP53 R248Q mutation) were purchased from the Cell Bank of Shanghai Institute of Biochemistry and Cell Biology, Chinese Academy of Sciences, and cultured in an RPMI 1640 culture medium containing 1000 fetal bovine serum, 100 U penicillin and 100 μg/mL streptomycin. A cell viability was determined by a CellTiter-Glo® Luminescent Cell Viability Assay kit (Promega, article number G7573).
(§2) An experimental method was operated according to steps in the instruction of the kit, which was briefly described as follows: a test compound was dissolved in DMSO first to prepare a 10 mM stock solution, then the stock solution was diluted with the above RPMI 1640 culture medium to prepare a test sample, and a final concentration of the compound was in a range of 1000 nM-0.015 nM. Cells in a logarithmic growth phase were inoculated into a 96-well cell culture plate at a density of 1000 cells per well, cultured in a 5% CO2 incubator at 37° C. overnight, and then the test compound was added to continuously culture for 72 hours. After the culture was ended, 50 μL of CellTiter-Glo detection solution was added to each well, the plates were shaken for 5 minutes, and then allowed to stand for 10 minutes, and subsequently, a luminous value of each well of sample was read by a microplate reader in a Luminescence mode. By comparing with a numerical value of a control group (0.3% DMSO), a percentage inhibition rate of the compound at each concentration was calculated, and then nonlinear regression analysis was carried out based on concentration logarithm-inhibition rate of the compound in GraphPad Prism 5 software, so as to obtain an IC50 value of the compound in inhibition on cell proliferation, which are shown in Table 1.

recombinant human KIF18A = target: T1, recombinant human KIF18A (Homo sapiens, UniProt Q8NI77); assay: Inhibition on KIF18A enzyme activity (ADP-Glo); type: biochemical; settings: recombinant human KIF18A 100 nM, ATP 60 μM
T1 construct: purchased GenScript
T1 sequence (Q8NI77 whole entry): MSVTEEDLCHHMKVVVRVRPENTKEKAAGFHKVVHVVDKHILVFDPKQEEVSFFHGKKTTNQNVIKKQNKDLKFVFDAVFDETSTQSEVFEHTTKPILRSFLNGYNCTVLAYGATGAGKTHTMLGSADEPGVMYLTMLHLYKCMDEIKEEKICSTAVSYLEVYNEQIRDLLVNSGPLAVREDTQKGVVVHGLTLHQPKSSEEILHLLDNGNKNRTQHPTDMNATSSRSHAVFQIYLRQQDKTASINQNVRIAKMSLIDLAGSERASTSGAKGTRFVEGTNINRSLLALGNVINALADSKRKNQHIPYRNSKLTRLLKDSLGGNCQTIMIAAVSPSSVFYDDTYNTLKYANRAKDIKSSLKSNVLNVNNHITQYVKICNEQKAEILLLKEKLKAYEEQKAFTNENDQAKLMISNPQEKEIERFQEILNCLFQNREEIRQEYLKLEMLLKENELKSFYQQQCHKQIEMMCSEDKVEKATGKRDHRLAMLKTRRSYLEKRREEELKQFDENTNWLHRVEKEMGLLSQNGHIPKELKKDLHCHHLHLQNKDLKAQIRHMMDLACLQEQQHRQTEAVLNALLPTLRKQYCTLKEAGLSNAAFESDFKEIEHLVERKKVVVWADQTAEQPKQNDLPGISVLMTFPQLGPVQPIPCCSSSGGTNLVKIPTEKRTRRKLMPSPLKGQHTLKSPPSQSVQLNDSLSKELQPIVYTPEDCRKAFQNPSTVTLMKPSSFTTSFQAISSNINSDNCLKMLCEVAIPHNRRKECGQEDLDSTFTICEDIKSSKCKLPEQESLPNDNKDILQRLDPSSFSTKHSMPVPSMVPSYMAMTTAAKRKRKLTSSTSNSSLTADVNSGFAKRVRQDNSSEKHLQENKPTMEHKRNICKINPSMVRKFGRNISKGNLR
T1 sequence (P68363 whole entry partner): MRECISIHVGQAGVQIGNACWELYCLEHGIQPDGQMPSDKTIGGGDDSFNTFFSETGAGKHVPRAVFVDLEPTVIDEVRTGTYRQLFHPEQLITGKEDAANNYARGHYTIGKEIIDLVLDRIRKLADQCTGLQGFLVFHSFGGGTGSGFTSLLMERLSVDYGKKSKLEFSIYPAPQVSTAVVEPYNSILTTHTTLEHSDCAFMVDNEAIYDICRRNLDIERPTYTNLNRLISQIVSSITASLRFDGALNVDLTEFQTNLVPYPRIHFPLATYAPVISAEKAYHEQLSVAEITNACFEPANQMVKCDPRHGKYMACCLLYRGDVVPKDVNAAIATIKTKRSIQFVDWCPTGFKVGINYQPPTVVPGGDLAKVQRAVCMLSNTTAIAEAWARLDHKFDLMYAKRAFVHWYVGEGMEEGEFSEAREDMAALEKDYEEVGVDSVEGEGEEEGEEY
T1 sequence (Q9BVA1 whole entry partner): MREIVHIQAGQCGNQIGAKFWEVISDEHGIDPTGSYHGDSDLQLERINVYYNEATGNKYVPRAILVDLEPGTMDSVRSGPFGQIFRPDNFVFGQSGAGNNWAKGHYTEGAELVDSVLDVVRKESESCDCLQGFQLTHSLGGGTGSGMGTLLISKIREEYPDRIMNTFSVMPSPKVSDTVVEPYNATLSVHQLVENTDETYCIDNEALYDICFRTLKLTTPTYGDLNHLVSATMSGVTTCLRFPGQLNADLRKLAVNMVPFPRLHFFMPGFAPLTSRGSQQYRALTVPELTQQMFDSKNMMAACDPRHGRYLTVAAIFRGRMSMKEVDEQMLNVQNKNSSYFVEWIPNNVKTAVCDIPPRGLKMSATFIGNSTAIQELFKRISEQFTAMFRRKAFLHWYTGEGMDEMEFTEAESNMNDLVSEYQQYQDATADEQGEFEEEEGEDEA
Protocol: Inhibition degrees of the compounds of the present invention on recombinant human KIF18A enzyme activity in vitro were determined by the following method. An ADP-Glo™ Kinase Assay kit (article number V9102) from Promega Company was used in this method. Detailed experimental operation can be referred to the instruction of the kit.
The reaction was carried out in a 384-well microplate. The test compound and the recombinant human KIF18A protein (final concentration of 100 nM, entrusted to GenScript for expression) were added into the wells and incubated at room temperature for 20 minutes, and subsequently, ATP solution (component V915A from the ADP-Glo™ Kinase Assay kit, final concentration of 60 μM) was added to the reaction solution and the obtained system was incubated at room temperature for 20 minutes. Subsequently, 5 μL of ADP-Glo Reagent was added to the reaction system and the obtained system was incubated at room temperature for 50 minutes. Then, 10 μL of Kinase Detection Reagent was added to the reaction system, and the obtained system was incubated at room temperature for 30 minutes. After the incubation was ended, a chemiluminiscence intensity value of each well was determined by a microplate reader in a Luminescence mode.

HT-29 cells = assay: Inhibition on HT-29 cell proliferation (CellTiter-Glo); type: cell-based; settings: Homo sapiens, HT-29 cells (TP53 R273H mutation), 120 hours
Protocol: as §1, with “HT-29” for “OVCAR-3”, “R273H” for “R248Q”, “a McCOY's 5A” for “an RPMI 1640”, “10%” for “1000”
as §2, with “McCOY's 5A” for “RPMI 1640”, “120” for “72”, “µL” for “μL”, “2.” for “1.”

Row | Structure (SMILES) | IC50 (OVCAR-3 cells) | IC50 (recombinant human KIF18A) | IC50 (HT-29 cells)
1 | CN1Cc2cc(NC(=O)c3ccc(NS(=O)(=O)CCO)cc3N3CCC4(CC3)CC4)cc(N3CCC(F)(F)CC3)c2C1=O [Example 28, N-(7-(4,4-difluoropiperidin-1-yl)-2-methyl-1-oxoisoindolin-5-yl)-4-((2-hydroxyethyl)sulfamine)-2-(6-azaspiro[2.5]octan-6-yl)benzamide] | 0.0068 µM | 0.142 µM | 0.0189 µM
2 | CCS(=O)(=O)Nc1ccc(C(=O)Nc2cc3c(c(CC(C)C)c2)OCC3)c(N2CCC3(CC2)CC3)c1 [Example 10, 4-(ethylsulfonamido)-N-(7-isobutyl-2,3-dihydrobenzofuran-5-yl)-2-(6-azaspiro[2.5]octan-6-yl)benzamide] |  | 0.267 µM | 
3 | CCS(=O)(=O)Nc1ccc(C(=O)Nc2cc(N3CCC(F)(F)CC3)c3cnn(C)c3c2)c(N2CCC3(CC2)CC3)c1 [Example 16, N-(4-(4,4-difluoropiperidin-1-yl)-1-methyl-1H-indazol-6-yl)-4-(ethylsulfonamido)-2-(6-azaspiro[2.5]octan-6-yl)benzamide] | 0.0367 µM | 0.209 µM | 0.0357 µM
4 | CCS(=O)(=O)Nc1ccc(C(=O)Nc2cc(N3CCC(F)(F)CC3)c3[nH]ncc3c2)c(N2CCC3(CC2)CC3)c1 [Example 21, N-(7-(4,4-difluoropiperidin-1-yl)-1H-indazol-5-yl)-4-(ethylsulfonamido)-2-(6-azaspiro[2.5]octan-6-yl)benzamide] | 0.0166 µM | 0.229 µM | 0.0138 µM
5 | CCS(=O)(=O)Nc1ccc(C(=O)Nc2cc3c(c(N4CCCCC4)c2)OCC3)c(N2CCC3(CC2)CC3)c1 [Example 3, 4-(ethylsulfonamido)-N-(7-(piperidin-1-yl)-2,3-dihydrobenzofuran-5-yl)-2-(6-azaspiro[2.5]octan-6-yl)benzamide] | 0.0112 µM | 0.0725 µM | 0.0066 µM
6 | O=C(Nc1cc2c(c(C3(O)CCC(F)(F)CC3)c1)OCC2)c1ccc(NS(=O)(=O)C2CC2)cc1N1CCC2(CC1)CC2 [Example 12, 4-(cyclopropanesulfonamido)-N-(7-(4,4-difluoro-1-hydroxycyclohexyl)-2,3-dihydrobenzofuran-5-yl)-2-(6-azaspiro[2.5]octan-6-yl)benzamide] |  | 0.173 µM | 
7 | CCS(=O)(=O)Nc1ccc(C(=O)Nc2cc3c(c(N4CCC(F)(F)CC4)c2)OCO3)c(N2CCC3(CC2)CC3)c1 [Example 13, N-(7-(4,4-difluoropiperidin-1-yl)benzo[d][1,3]dioxol-5-yl)-4-(ethylsulfonamido)-2-(6-azaspiro[2.5]octan-6-yl)benzamide] | 0.0055 µM | 0.291 µM | 0.0073 µM
8 | CCS(=O)(=O)Nc1ccc(C(=O)Nc2cc3c(c(N4CCC(F)(F)CC4)c2)C(=O)NC3)c(N2CCC3(CC2)CC3)c1 [Example 23, N-(7-(4,4-difluoropiperidin-1-yl)-1-oxoisoindolin-5-yl)-4-(ethylsulfonamido)-2-(6-azaspiro[2.5]octan-6-yl)benzamide] | 0.0036 µM | 0.123 µM | 0.0058 µM
9 | CCS(=O)(=O)Nc1ccc(C(=O)Nc2cc3c(c(N4CCC(F)(F)C4)c2)OCC3)c(N2CCC3(CC2)CC3)c1 [Example 5, N-(7-(3,3-difluoropyrrolidine-1-yl)-2,3-dihydrobenzofuran-5-yl)-4-(ethylsulfonamido)-2-(6-azaspiro[2.5]octan-6-yl)benzamide] |  | 0.134 µM | 
10 | CCS(=O)(=O)Nc1ccc(C(=O)Nc2cc3c(c(N4CCC5(CC4)CC5)c2)OCC3)c(N2CCC3(CC2)CC3)c1 [Example 4, N-(7-(6-azaspiro[2.5]octan-6-yl)-2,3-dihydrobenzofuran-5-yl)-4-(ethylsulfonamido)-2-(6-azaspiro[2.5]octan-6-yl)benzamide] |  | 0.212 µM | 
11 | CCS(=O)(=O)Nc1ccc(C(=O)Nc2cc3c(c(N4CCOCC4)c2)C(=O)N(C)C3)c(N2CCC3(CC2)CC3)c1 [Example 27, 4-(ethylsulfonamido)-N-(2-methyl-7-morpholino-1-oxoisoindolin-5-yl)-2-(6-azaspiro[2.5]octan-6-yl)benzamide] | 0.00196 µM | 0.109 µM | 
12 | Cn1cc2cc(NC(=O)c3ccc(NS(=O)(=O)C4CC4)cc3N3CCC4(CC3)CC4)cc(N3CCC(F)(F)CC3)c2n1 [Example 26] |  | 0.256 µM | 
13 | CCS(=O)(=O)Nc1ccc(C(=O)Nc2cc3c(c(N4CCC(F)(F)CC4)c2)OCCO3)c(N2CCC3(CC2)CC3)c1 [Example 14, N-(8-(4,4-difluoropiperidin-1-yl)-2,3-dihydrobenzo[b][1,4]dioxin-6-yl)-4-(ethylsulfonamido)-2-(6-azaspiro[2.5]octan-6-yl)benzamide] | 0.0084 µM | 0.184 µM | 0.0092 µM
14 | CCS(=O)(=O)Nc1ccc(C(=O)Nc2cc(N3CCC(F)(F)CC3)c3oc(C)nc3c2)c(N2CCC3(CC2)CC3)c1 [Example 22, N-(7-(4,4-difluoropiperidin-1-yl)-2-methylbenzo[d]oxazol-5-yl)-4-(ethylsulfonamido)-2-(6-azaspiro[2.5]octan-6-yl)benzamide] | 0.0332 µM | 0.0985 µM | 
15 | CCS(=O)(=O)Nc1ccc(C(=O)Nc2cc3c(c(N4CCC(F)(F)CC4)c2)OCCC3)c(N2CCC3(CC2)CC3)c1 [Example 15] | 0.0184 µM |  | 0.0236 µM
16 | CCS(=O)(=O)Nc1ccc(C(=O)Nc2cc(N3CCC(F)(F)CC3)c3cn(C)nc3c2)c(N2CCC3(CC2)CC3)c1 [Example 17, N-(4-(4,4-difluoropiperidin-1-yl)-2-methyl-2H-indazol-6-yl)-4-(ethylsulfonamido)-2-(6-azaspiro[2.5]octan-6-yl)benzamide] | 0.0066 µM | 0.28 µM | 
17 | CCS(=O)(=O)Nc1ccc(C(=O)Nc2cc3c(c(C4CC4)c2)OCC3)c(N2CCC3(CC2)CC3)c1 [Example 8, N-(7-cyclopropyl-2,3-dihydrobenzofuran-5-yl)-4-(ethylsulfonamido)-2-(6-azaspiro[2.5]octan-6-yl)benzamide] |  | 0.0906 µM | 
18 | CCS(=O)(=O)Nc1ccc(C(=O)Nc2cc(N3CCC(F)(F)CC3)c3cn[nH]c3c2)c(N2CCC3(CC2)CC3)c1 [Example 20, N-(4-(4,4-difluoropiperidin-1-yl)-1H-indazol-6-yl)-4-(ethylsulfonamido)-2-(6-azaspiro[2.5]octan-6-yl)benzamide] | 0.0203 µM | 0.197 µM | 
19 | CCS(=O)(=O)Nc1ccc(C(=O)Nc2cc(N3CCC(F)(F)C3)c3nn(C)cc3c2)c(N2CCC3(CC2)CC3)c1 [Example 25, N-(7-(3,3-difluoropyrrolidin-1-yl)-2-methyl-2H-indazol-5-yl)-4-(ethylsulfonamido)-2-(6-azaspiro[2.5]octan-6-yl)benzamide] | 0.0336 µM | 0.198 µM | 
20 | CCS(=O)(=O)Nc1ccc(C(=O)Nc2cc3c(c(C4(O)CCC(F)(F)CC4)c2)OCC3)c(N2CCC3(CC2)CC3)c1 [Example 11, N-(7-(4,4-difluoro-1-hydroxycyclohexyl)-2,3-dihydrobenzofuran-5-yl)-4-(ethylsulfonamido)-2-(6-azaspiro[2.5]octan-6-yl)benzamide] |  | 0.263 µM | 
